Usually Ki stands for a measure of affinity in units of concentration, obtained from inhibition or displacement.

This experiment deals with recombinant Mcl-1 (residues 172-327) (Homo sapiens (Human), UniProt Q07820). As to the kind of experiment: Bak peptide fluorescence polarization anisotropy competition assay, Mcl-1. In kind it is binding.
Where [1] appears, read: Table 2, Ki range, FITC-Bak peptide 10 nM, Mcl-1 14 nM, read-out: Ki for inhibition of Mcl-1.
[2] abbreviates: read-out: Ki for inhibition of Mcl-1.

Structures are written as SMILES. Read-outs that look alike come from different tables or passages of the source.

recombinant Mcl-1 (residues 172-327), sequence (Q07820 172-327): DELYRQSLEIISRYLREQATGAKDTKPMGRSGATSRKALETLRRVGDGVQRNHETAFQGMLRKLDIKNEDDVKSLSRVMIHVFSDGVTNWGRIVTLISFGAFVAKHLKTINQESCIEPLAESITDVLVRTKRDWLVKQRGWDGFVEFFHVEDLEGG

For the molecule `Cc1cc(OCCCc2c(C(=O)NS(=O)(=O)c3ccc(CO)o3)[nH]c3cc(Cl)ccc23)cc(C)c1Cl` [Example 260, -chloro-3-(3-(4-chloro-3,5-dimethylphenoxy)propyl)-N-((5-(hydroxymethyl)furan-2-yl)sulfonyl)-1H-indole-2-carboxamide], the inhibitory constant (Ki) under setting [1] is at most 100 nM.

On to `CS(=O)(=O)NC(=O)c1[nH]c2cccc(Cl)c2c1CCCOc1cccc2ccccc12` [Example 49, 4-chloro-N-(methylsulfonyl)-3-(3-(naphthalen-1-yloxy)propyl)-1H-indole-2-carboxamide], for which the inhibition constant Ki under setting [2] was 101 to 299 nM.

With `Cc1cc(OCCCc2c(C(=O)NS(=O)(=O)CCNC(=O)/C=C/c3ccccc3)[nH]c3ccccc23)cc(C)c1Cl` [Example 163, (E)-3-(3-(4-chloro-3,5-dimethylphenoxy)propyl)-N-((2-cinnamamidoethyl)sulfonyl)-1H-indole-2-carboxamide], the inhibitory constant (Ki) under setting [2] fell in the range of 101 to 299 nM.

`Cc1cc(OCCCc2c(C(=O)NS(=O)(=O)c3ccc(OCc4ccccc4)nc3)[nH]c3ccccc23)cc(C)c1Cl` [Example 144, N-((6-(benzyloxy)pyridin-3-yl)sulfonyl)-3-(3-(4-chloro-3,5-dimethylphenoxy)propyl)-1H-indole-2-carboxamide]: the Ki under setting [2] is 301 to 500 nM.

Consider `COC(=O)c1cc(S(=O)(=O)NC(=O)c2[nH]c3cc(Cl)ccc3c2CCCOc2cc(C)c(Cl)c(C)c2)oc1C` [Example 264, methyl 5-(N-(6-chloro-3-(3-(4-chloro-3,5-dimethylphenoxy)propyl)-1H-indole-2-carbonyl)sulfamoyl)-2-methylfuran-3-carboxylate], for which the Ki under setting [1] is at most 100 nM.

On to `Cc1cc(OCCCc2c(C(=O)NS(=O)(=O)C3CCN(C(=O)c4cccn4Cc4ccccc4)CC3)[nH]c3cc(Cl)ccc23)cc(C)c1Cl` [Example 215, N-((1-(1-benzyl-1H-pyrrole-2-carbonyl)piperidin-4-yl)sulfonyl)-6-chloro-3-(3-(4-chloro-3,5-dimethylphenoxy)propyl)-1H-indole-2-carboxamide], for which the Ki under setting [2] lay within 301 to 500 nM.

As for `COc1nccc(C)c1-c1cccc2c(CCCOc3cc(C)c(Cl)c(C)c3)c(C(=O)NS(=O)(=O)c3ccccc3)[nH]c12` [Example 301, 3-(3-(4-chloro-3,5-dimethylphenoxy)propyl)-7-(2-methoxy-4-methylpyridin-3-yl)-N-(phenylsulfonyl)-1H-indole-2-carboxamide], the inhibitory constant (Ki) under setting [1] was at most 100 nM.

As for `Cc1cc(OCCCc2c(C(=O)NS(C)(=O)=O)[nH]c3c(Br)cccc23)cc(C)c1Cl` [Example 83, 7-bromo-3-(3-(4-chloro-3,5-dimethylphenoxy)propyl)-N-(methylsulfonyl)-1H-indole-2-carboxamide], under setting [2], the Ki lay in the range of 301 to 500 nM.

As for `Cc1cc(OCCCc2c(C(=O)NS(=O)(=O)c3ccccc3)[nH]c3c(-c4cccnc4)cccc23)cc(C)c1Cl` [Example 93, 3-(3-(4-chloro-3,5-dimethylphenoxy)propyl)-N-(phenylsulfonyl)-7-(pyridin-3-yl)-1H-indole-2-carboxamide], the Ki under setting [2] lay in the range of 101 to 299 nM.

Turning to `Cc1cc(OCCCc2c(C(=O)NS(C)(=O)=O)[nH]c3c(C)c(Br)ccc23)cc(C)c1Cl` [Example 120, 6-bromo-3-(3-(4-chloro-3,5-dimethylphenoxy)propyl)-7-methyl-N-(methylsulfonyl)-1H-indole-2-carboxamide], the Ki under setting [2] was in the range of 1000 to 9990 nM.

With `Cc1cc(OCCCc2c(C(=O)NS(=O)(=O)CCNC(=O)c3ccco3)[nH]c3cc(Cl)ccc23)cc(C)c1Cl` [Example 232, 6-chloro-3-(3-(4-chloro-3,5-dimethylphenoxy)propyl)-N-((2-(furan-2-carboxamido)ethyl)sulfonyl)-1H-indole-2-carboxamide], the inhibition constant Ki under setting [1] is at most 100 nM.

As for `Cc1ccccc1-c1cccc2c(CCCOc3cccc4ccccc34)c(C(=O)O)sc12` [Example 10, 3-(3-(naphthalen-1-yloxy)propyl)-7-(o-tolyl)benzo[b]thiophene-2-carboxylic acid], the inhibition constant Ki under setting [2] lay within 101 to 299 nM.

Regarding `Cc1cc(OCCCc2c(C(=O)NS(C)(=O)=O)[nH]c3ccc(Cl)cc23)cc(C)c1Cl` [Example 110, 5-chloro-3-(3-(4-chloro-3,5-dimethylphenoxy)propyl)-N-(methylsulfonyl)-1H-indole-2-carboxamide], the inhibition constant (Ki) under setting [2] was 501 to 999 nM.

Regarding `Cc1ccccc1S(=O)(=O)NC(=O)c1[nH]c2ccccc2c1CCCOc1cc(C)c(Cl)c(C)c1` [Example 137, 3-(3-(4-chloro-3,5-dimethylphenoxy)propyl)-N-(o-tolylsulfonyl)-1H-indole-2-carboxamide], the Ki under setting [2] lay within 101 to 299 nM.

Turning to `Cc1cc(OCCCc2c(C(=O)NS(=O)(=O)C3CCN(C(=O)c4cccc(Oc5ccccc5)c4)CC3)[nH]c3cc(Cl)ccc23)cc(C)c1Cl` [Example 213, 6-chloro-3-(3-(4-chloro-3,5-dimethylphenoxy)propyl)-N-((1-(3-phenoxybenzoyl)piperidin-4-yl)sulfonyl)-1H-indole-2-carboxamide], the Ki under setting [2] was in the range of 301 to 500 nM.

Consider `Cc1cc(OCCCc2c(C(=O)NS(=O)(=O)CCNC(=O)c3ccccn3)[nH]c3ccccc23)cc(C)c1Cl` [Example 190, 3-(3-(4-chloro-3,5-dimethylphenoxy)propyl)-N-((2-(picolinamido)ethyl)sulfonyl)-1H-indole-2-carboxamide], for which the Ki under setting [2] was 101 to 299 nM.

Take `Cc1cc(OCCCc2c(C(=O)NS(=O)(=O)CCNC(=O)c3cccn3Cc3cccc(Cl)c3)[nH]c3cc(Cl)ccc23)cc(C)c1Cl` [Example 243, 6-chloro-3-(3-(4-chloro-3,5-dimethylphenoxy)propyl)-N-((2-(1-(3-chlorobenzyl)-1H-pyrrole-2-carboxamido)ethyl)sulfonyl)-1H-indole-2-carboxamide]: the Ki under setting [2] lay within 301 to 500 nM.

For the molecule `Cc1cc(OCCCc2c(C(=O)NS(=O)(=O)c3ccccc3)[nH]c3c(-c4ccncc4C(F)(F)F)cccc23)cc(C)c1Cl` [Example 104, 3-(3-(4-chloro-3,5-dimethylphenoxy)propyl)-N-(phenylsulfonyl)-7-(3-(trifluoromethyl)pyridin-4-yl)-1H-indole-2-carboxamide], under setting [1], the inhibition constant Ki was at most 100 nM.

Consider `Cc1cccc(S(=O)(=O)NC(=O)c2c(CCCOc3cc(C)c(Cl)c(C)c3)c3ccc(Cl)cc3n2Cc2cccnc2)c1` [Example 273, 6-chloro-3-(3-(4-chloro-3,5-dimethylphenoxy)propyl)-1-(pyridin-3-ylmethyl)-N-(m-tolylsulfonyl)-1H-indole-2-carboxamide], for which the inhibition constant (Ki) was 101 to 299 nM.

Regarding `Cc1cc(OCCCc2c(C(=O)NS(=O)(=O)c3ccc(OCc4ccccc4)cc3)n(C)c3cc(Cl)ccc23)cc(C)c1Cl` [Example 270, N-((4-(benzyloxy)phenyl)sulfonyl)-6-chloro-3-(3-(4-chloro-3,5-dimethylphenoxy)propyl)-1-methyl-1H-indole-2-carboxamide], under setting [2], the inhibitory constant (Ki) was in the range of 301 to 500 nM.

For `Cc1ccc2c(CCCOc3cc(C)c(Cl)c(C)c3)c(C(=O)NS(C)(=O)=O)[nH]c2c1` [Example 117, 3-(3-(4-chloro-3,5-dimethylphenoxy)propyl)-6-methyl-N-(methylsulfonyl)-1H-indole-2-carboxamide], the Ki under setting [2] is 301 to 500 nM.

Regarding `CS(=O)(=O)NC(=O)c1[nH]c2ccccc2c1CCCOc1cccc2c1CCC2` [Example 74, 3-(3-((2,3-dihydro-1H-inden-4-yl)oxy)propyl)-N-(methylsulfonyl)-1H-indole-2-carboxamide], the Ki under setting [2] was 1000 to 9990 nM.

As to `CCOc1ccc(Oc2ccc(S(=O)(=O)NC(=O)c3[nH]c4ccccc4c3CCCOc3cc(C)c(Cl)c(C)c3)cc2)cc1` [Example 143, 3-(3-(4-chloro-3,5-dimethylphenoxy)propyl)-N-((4-(4-ethoxyphenoxy)phenyl)sulfonyl)-1H-indole-2-carboxamide], the inhibition constant Ki under setting [2] was in the range of 301 to 500 nM.

Turning to `Cc1cc(OCCCc2c(C(=O)NS(=O)(=O)c3ccc4ccccc4c3)oc3ccccc23)cc(C)c1Cl` [Example 27, 3-(3-(4-chloro-3,5-dimethylphenoxy)propyl)-N-(naphthalen-2-ylsulfonyl)benzofuran-2-carboxamide], the Ki under setting [2] was in the range of 1000 to 9990 nM.

Turning to `COc1ccc(OCCCc2c(C(=O)NS(C)(=O)=O)[nH]c3cc(Cl)ccc23)cc1` [Example 109, 6-chloro-3-(3-(4-methoxyphenoxy)propyl)-N-(methylsulfonyl)-1H-indole-2-carboxamide], the inhibitory constant (Ki) under setting [2] is 10000 to 50000 nM.

As for `COc1ccncc1-c1cccc2c(CCCOc3cc(C)c(Cl)c(C)c3)c(C(=O)NS(=O)(=O)c3ccccc3)[nH]c12` [Example 90, 3-(3-(4-chloro-3,5-dimethylphenoxy)propyl)-7-(4-methoxypyridin-3-yl)-N-(phenylsulfonyl)-1H-indole-2-carboxamide], under setting [1], the Ki is at most 100 nM.

Take `Cc1cc(OCCCc2c(C(=O)NS(=O)(=O)c3ccc(C(=O)N4CCOCC4)o3)[nH]c3cc(Cl)ccc23)cc(C)c1Cl` [Example 262, 6-chloro-3-(3-(4-chloro-3,5-dimethylphenoxy)propyl)-N-((5-(morpholine-4-carbonyl)furan-2-yl)sulfonyl)-1H-indole-2-carboxamide]: the inhibition constant Ki under setting [2] was in the range of 101 to 299 nM.

As for `CS(=O)(=O)NC(=O)c1[nH]c2cc(Cl)ccc2c1CCCOc1cccc2c1CCC2` [Example 106, 6-chloro-3-(3-((2,3-dihydro-1H-inden-4-yl)oxy)propyl)-N-(methylsulfonyl)-1H-indole-2-carboxamide], the inhibition constant (Ki) under setting [2] was in the range of 1000 to 9990 nM.

`Cc1cc(OCCCc2c(C(=O)NS(=O)(=O)c3ccc(C(=O)O)n3C)[nH]c3cc(Cl)ccc23)cc(C)c1Cl` [Example 266, 5-(N-(6-chloro-3-(3-(4-chloro-3,5-dimethylphenoxy)propyl)-1H-indole-2-carbonyl)sulfamoyl)-1-methyl-1H-pyrrole-2-carboxylic acid]: the Ki under setting [1] is at most 100 nM.

On to `O=C(NS(=O)(=O)C(F)(F)F)c1cc2ccccc2n1CCCOc1cccc2ccccc12` [Example 15, 1-(3-(naphthalen-1-yloxy)propyl)-N-((trifluoromethyl)sulfonyl)-1H-indole-2-carboxamide], for which, under setting [2], the Ki lay in the range of 501 to 999 nM.

With `Cc1cc(OCCCc2c(C(=O)NS(=O)(=O)c3ccccc3)[nH]c3c(-c4cnn(C)c4)c(Cl)ccc23)cc(C)c1Cl` [Example 121, 6-chloro-3-(3-(4-chloro-3,5-dimethylphenoxy)propyl)-7-(1-methyl-1H-pyrazol-4-yl)-N-(phenylsulfonyl)-1H-indole-2-carboxamide], the Ki under setting [1] was at most 100 nM.
